From the NIST ThermoML archive (doi:10.1016/j.fluid.2013.08.029) come the findings set out here.

For the data set the following is noted: 101.33 kPa, Liquid; for speed of sound: Sing-around technique in a fixed-path interferometer; for mass density: Vibrating tube method.

Numbers after ± are expanded uncertainties.

In general, speed of sound refers to how fast a sound wave travels through the sample. The term mass density denotes mass per unit of volume. With `CCCCCn1cc[n+](C)c1.[Br-]` [1-pentyl-3-methylimidazolium bromide], the speed of sound reads like this: (288.15 K) 1678.6 ± 3 m/s; (293.15 K) 1644.2 ± 3 m/s; (298.15 K) 1617.5 ± 3 m/s; (303.15 K) 1596.4 ± 2.9 m/s; (308.15 K) 1578.9 ± 2.9 m/s; (313.15 K) 1563.7 ± 2.9 m/s. Further, the speed of sound (318.15 K) was 1550.2 ± 2.9 m/s. The mass density is reported as 1264.08 ± 1.4 kg/m3 (288.15 K); 1260.52 ± 1.4 kg/m3 (293.15 K); 1256.87 ± 1.4 kg/m3 (298.15 K); 1253.05 ± 1.4 kg/m3 (303.15 K); 1249.57 ± 1.4 kg/m3 (308.15 K); 1246.17 ± 1.4 kg/m3 (313.15 K). For the same compound, the mass density (318.15 K) was found to be 1242.76 ± 1.4 kg/m3.

With `OCCO` [1,2-ethanediol], the speed of sound came to 1677.5 ± 2.2 m/s (288.15 K); 1665.6 ± 2.2 m/s (293.15 K); 1653.9 ± 2.2 m/s (298.15 K); 1642.2 ± 2.2 m/s (303.15 K); 1630.6 ± 2.2 m/s (308.15 K); 1618.9 ± 2.2 m/s (313.15 K). Further, the speed of sound (318.15 K) was 1607.3 ± 2.2 m/s. For the same compound, the mass density came out at 1113.35 ± 0.16 kg/m3 (293.15 K), 1106.33 ± 0.16 kg/m3 (303.15 K) and 1099.26 ± 0.16 kg/m3 (313.15 K).

For `CCCCn1cc[n+](C)c1C.F[B-](F)(F)F` [1-butyl-2,3-dimethylimidazolium tetrafluoroborate], the speed of sound is 1668.6 ± 2.2 m/s (288.15 K); 1654.9 ± 2.1 m/s (293.15 K); 1641.4 ± 2.1 m/s (298.15 K); 1628.7 ± 2.1 m/s (303.15 K); 1616.9 ± 2.1 m/s (308.15 K); 1605.1 ± 2.1 m/s (313.15 K). The speed of sound (318.15 K) is on record as 1593.9 ± 2.1 m/s. For the same compound, the mass density by setting is: (288.15 K) 1199.9 ± 0.15 kg/m3; (293.15 K) 1196.72 ± 0.15 kg/m3; (298.15 K) 1193.34 ± 0.15 kg/m3; (303.15 K) 1189.92 ± 0.15 kg/m3; (308.15 K) 1186.52 ± 0.15 kg/m3; (313.15 K) 1183.17 ± 0.15 kg/m3. Besides, the mass density (318.15 K) is on record as 1179.54 ± 0.15 kg/m3.

As for `CCCCCn1cc[n+](C)c1.F[B-](F)(F)F` [1-methyl-3-pentyl-imidazolium tetrafluoroborate], the speed of sound was determined as 1565.2 ± 2.9 m/s (288.15 K); 1552.5 ± 2.9 m/s (293.15 K); 1540.2 ± 2.9 m/s (298.15 K); 1528.2 ± 2.9 m/s (303.15 K); 1516.3 ± 2.9 m/s (308.15 K); 1504.6 ± 2.9 m/s (313.15 K). Besides, for the setting “318.15 K”, the speed of sound was 1493.1 ± 2.9 m/s. The mass density runs as follows: (288.15 K) 1183.92 ± 1.2 kg/m3; (293.15 K) 1180.34 ± 1.2 kg/m3; (298.15 K) 1176.85 ± 1.2 kg/m3; (303.15 K) 1173.35 ± 1.2 kg/m3; (308.15 K) 1169.85 ± 1.2 kg/m3; (313.15 K) 1166.36 ± 1.2 kg/m3. The mass density (318.15 K) was found to be 1162.85 ± 1.2 kg/m3.
